Test results as given in article PMC11148078, “Potent activity of polymyxin B is associated with long-lived super-stoichiometric accumulation mediated by weak-affinity binding to lipid A” (Nature Communications, 2024).
Entries after “also recorded” stand apart in the source; their conditions may differ. Bridge positions count the residues as written; N and C are the ends. Square brackets hold non-standard residues; d marks the D form. Peptide text beside a SMILES is read from it. * marks the point of attachment. X1 = CC[C@H](C)CCCCC(=O)*; Dab = NCC[C@H](N)C(=O)O

How the values were obtained:
wt-OMVs [1] = test: TEM / cryo-EM of treated OMVs; set-up: species or system E. coli; settings: ~0.5:1 compound to LPS
Procedure: OMVs were incubated in OMV buffer (as above) plus 0.0005% tween-80 and then polymyxin B, PMBN, or an equal volume of OMV buffer, added for a final ratio of 0.5:1 polymyxin B (or PMBN) to LPS for either 1 min or 40 min. The amount of LPS in the OMV preparations was determined using fluorescently labeled LPS as described. LPS was quantified by addition of 20 µL of 4 µM dansyl-polymyxin B to 20 µL of sample or dilution series of LPS in PBS with 0.004% tween-80 and 5 mM EDTA in a while polypropylene 384-well plate (Thermo-Fisher). The plate was incubated for 30 min at room-temperature before reading the fluorescence intensity on a plate reader (Ex 340 nm, Em 495 nm, cutoff 475 nm). Concentration was interpolated using a standard curve. Log-phase bacteria were diluted to OD600 of 0.25 in 3 mL of LB supplemented with tween-80 before addition of 1 µL of 1 µM polymyxin B or PMBN and incubated statically at 37 °C. Samples were fixed at times indicated by addition of equal volume of 2x Karnovsky fix and stored at 4 °C. The suspensions were then adsorbed to the surface of formvar and carbon-coated standard TEM grids (75 mesh) for 15 min at room temperature, quickly rinsed in ultrapure water. OMVs were stained twice for 60 s with 2% aqueous uranyl acetate and bacteria were stained with uranyl-less stain (ready-to-use solution from Electron Microscopy Sciences) twice for 60 s. Excess staining solution was blotted off and grids were air dried. Imaging was with JEOL JEM-1400 transmission electron microscope (TEM) operated at 80 kV using magnification form 5000x to 100,000x. At least 20 images were taken for each sample. […]
California USA, www.graphpad.com). […]
Wild-type and polymyxin-resistant OMVs (pmrAG53E) were incubated with polymyxin B, PMBN, or an equal volume of buffer, as described for TEM imaging at a final ratio of 0.5:1 polymyxin B (or PMBN) to LPS for 20 min. To prepare samples for cryo-EM, 4 μL of each condition was applied to holey gold grids (UltrAuFoil 25 nm R 1.2/1.3; Quantifoil) which had been glow discharged for 20 sec with a Solarus plasma cleaner (Gatan). […]

wt-OMVs [2] = test: Single-cycle kinetic SPR binding to immobilized wt-OMVs; set-up: species or system E. coli; settings: for SPR binding in presence of excess Mg^2+: 32 mM Mg^2+; for SPR binding profile: serial doubling injections, C1 chip
Procedure: (§1) Polymyxin B was covalently attached to a C1 chip (Series S Sensor Chip C1, Cytiva) using an amine coupling kit (Cytiva). Cartoon in Fig. 1A created with BioRender (biorender.com). Briefly, equal amounts of reagents N-hydroxysuccinimide and 1-ethyl-3-(3-dimethylaminopropyl) carbodiimide hydrochloride were mixed as per manufacturer’s instructions and immediately added to the gold chip surface for 2 min, washed with distilled deionized water, and dried. Sufficient polymyxin B (1 mM in 1 M HEPES buffer, pH 8) was added to cover the chip surface, incubated at room temperature for 1 h, washed as before, and then incubated with 1 M ethanolamine hydrochloride-NaOH, pH 8.5, for 1 min. The chip surface was washed with water, dried as previously described, immediately loaded into a Biacore S200, and primed with running buffer (described below) to equilibrate the system. C1 chips were used for multiple runs and discarded upon removal from the Biacore S200.
(§2) SCK C1-chip SPR experiments were performed in running buffer (Dulbecco’s phosphate-buffered salt solution 1x without calcium or magnesium (Fisher Scientific), pH 7.4, with 0.0005% tween-80 (Sigma) passed through a 0.2 µm filter) unless otherwise indicated. Inclusion of tween-80 prevented loss of polymyxin to the plastics[34] (also see Supplementary Information Methods). For experiments with brevicidine, which was suspended in DMSO, 0.125% DMSO was included in the running buffer. OMVs were diluted from frozen stocks to approximately 20–30 µg/ml protein in the OMV buffer. Capture of OMVs was performed at a low flow rate ([…]) for 300 s over the test channel(s) followed by a 300 s stabilization period. All subsequent steps were at a flow rate of […]. For single cycle kinetics, two-fold dilutions were injected over the channel(s) loaded with OMVs and a reference channel without OMVs for 30 s contact and 480 s dissociation. To regenerate chips, 0.5% SDS (desorb 1, Cytiva) was injected into all channels for 60 s at 30 µl/ml twice, with an extra buffer wash and four carry-over control steps to prevent residual SDS from disrupting the following cycle.
All single-cycle kinetic SPR traces shown were double-referenced (unless indicated) within the Biacore S200 Evaluation Software 1.0, exported as a.txt file, and imported (decimated) into GraphPad Prism (version 9.3.1 for Mac, GraphPad Software, San Diego, CA). For clarity, in some cases individual outlier data points (at buffer transitions) were removed when this would not change the overall data or conclusions.

[3] = system: resistant-OMVs (E. coli PmrA^G53E); test: Single-cycle kinetic SPR binding to immobilized resistant-OMVs; settings: serial doubling injections, C1 chip
Procedure: as §1
as §2, with “To regenerate chips, 0.5% SDS (desorb 1, Cytiva) was injected into all channels for 60 s at 30 µl/ml twice, with an extra buffer wash and four carry-over control steps to prevent residual SDS from disrupting the following cycle.” left out

| SMILES | effect on OMV morphology (words) (wt-OMVs [1]) | SPR binding in presence of excess Mg^2+ (wt-OMVs [2]) | SPR binding profile (wt-OMVs [2]) | SPR binding profile [3] | effect on OMV morphology (words) (wt-OMVs [1]; listed as polymyxin B) | effect of EDTA on SPR binding (wt-OMVs [2]; EDTA 4 mM, maximum 625 nM, n=3) |
| --- | --- | --- | --- | --- | --- | --- |
| CC(C)C[C@@H]1NC(=O)[C@@H](Cc2ccccc2)NC(=O)[C@H](CCN)NC(=O)[C@@H](NC(=O)[C@H](CCN)NC(=O)[C@@H](N)[C@@H](C)O)CCNC(=O)[C@H]([C@@H](C)O)NC(=O)[C@H](CCN)NC(=O)[C@H](CCN)NC1=O [PMBN] (H-T[Dab][Dab][Dab][dF]L[Dab][Dab]T; lactam 3-C) | less or no OMV clumping was observed | eliminated | exhibited only weak, saw-tooth binding; also recorded: exclusively produces rapidly reversible binding | exhibited only weak, saw-tooth binding | – | – |
| CC[C@H](C)CCCCC(=O)N[C@@H](CCN)C(=O)N[C@H](C(=O)N[C@@H](CCN)C(=O)N[C@H]1CCNC(=O)[C@H]([C@@H](C)O)NC(=O)[C@H](CCN)NC(=O)[C@H](CCN)NC(=O)[C@H](CC(C)C)NC(=O)[C@@H](Cc2ccccc2)NC(=O)[C@H](CCN)NC1=O)[C@@H](C)O [Polymyxin B] (X1-[Dab]T[Dab][Dab][Dab][dF]L[Dab][Dab]T; lactam 4-C (inferred); N-terminus assumed) | led to clumping | reduced to a weak transient saw-tooth profile without stably bound polymyxin B | dominated by the accumulation of tightly bound polymyxin B and a superimposed saw-tooth profile associated with transient binding | exhibited only the weak, saw-tooth binding | exhibited vesiculation and tubules; also recorded: OMVs are perturbed by polymyxin B | had no effect on polymyxin binding |
